The structures appear in SMILES notation.

The subject of series [1] is Noxa in 8226 bortezomib resistant multiple myeloma cell line. The experiment in a line: Western blot of Noxa. In kind it is cell-based. The settings on record: 25 μM Analog 4, 100 μM Analog 11. On the procedure:
Referring to FIG. 20 (panel C), 1×10^6 cells/well were seeded in a 12-well plate. 8226 parental and resistant multiple myeloma cell lines were treated with 100 μM CB002, 25 μM Analog 4, or 100 μM Analog 11.
For orientation: A western blot detects proteins with antibodies after separation by electrophoresis.

Series [2] relates to SW480 cells. Description: CellTiter-Glo luminescent cell viability assay. Format: cell-based, human. Conditions: for cell viability: dose dependent. On the procedure:
(§1) Cells were seeded in 96-well plates at a density of 5×10^3 cells per well. 20 μL of CellTiter-Glo® Reagent was added directly to the wells, following the manufacturer's protocol, and bioluminescence signal was determined using an IVIS imaging system.
Cell lines at a concentration of 4×10^3 cells/well were seeded out on an opaque 96-well plate and treated with CB002 and Analog 11 in ranging doses starting from 200 μmol/L with DMSO controls. At 72 hours after treatment, cells were mixed with 30 μL Cell Titer-Glo reagent and after ten minutes of room temperature incubation were imaged using IVIS imaging system (Xenogen).
(§2) To begin establishing the potential of CB002 as a candidate therapeutic agent, its therapeutic index was determined by treating cancer (DLD-1, SW480, and RXF393) and normal (WI38 and MRC5) cell lines with concentrations of CB002 ranging from 0-500 μM for a period of 72 hours and assessing cell viability by the CellTiter-Glo® luminescence assay (see, FIG. 2). CB002 has a significant therapeutic index among the cells tested.
(ATP-based viability assays read luminescence as a measure of living cells.)

For series [3], the system named is p53 reporter (PG13-luc) in SW480 cells. The experiment in a line: luciferase-based p53-reporter activity assay. Format: cell-based, human. On the procedure: High-throughput screening was performed using a non-invasive bioluminescence imaging in human colorectal cancer cell lines that stably express a p53-regulated luciferase reporter. Cells were seeded in 96-well plates (Greiner Bio-One) at a density of 1×10^4 cells per well. p53 transcriptional activity was imaged using an IVIS imaging system for a period of 3-4 hours.
Cell-based screening of p53 transcriptional activity for small molecule CB002 was accomplished using noninvasive bioluminescence imaging in human colorectal cancer cell lines SW480, DLD-1, DLD-1 p73^−/−, HCT116, and HCT116 p53^−/−. These cell lines stably express a p53 reporter, PG13-luc. Cells were seeded in opaque 96-well culture at a density of 5×10^4 cells/well. The cells were treated with CB002 at ranging doses with DMSO controls. Bioluminescence in cells was imaged for p53 transcriptional activity at 2 hours and 24 hours using IVIS imaging system (Xenogen).
In order to identify small molecules that could restore the p53 signaling pathway, 50,000 small molecules from the Chembridge Library were screened using a firefly luciferase human p53 reporter assay system. SW480 colorectal cancer cells that stably express the human p53 reporter were treated with compounds at various concentrations from 0-100 μM for 2 and 24 hours. […] To further validate the effects of CB002, the screening was expanded by testing effects on p53-dependent reporter activity in DLD-1, wild-type HCT116, and p53-null colorectal cancer HCT116 cell lines. […] Referring to FIG. 1, representative images of luciferase-based p53-reporter activity assays are shown at 3 hours (Panel A). Quantification of the luciferase-based p53-reporter activity assays in three different cell lines incubated from 3-24 hours with CB002 are shown (Panels B-D). p53-reporter activity assays are shown at 2 hours for HCT116 p53-null cells (Panel E).

Series [4] relates to normal (WI38 and MRC5) cell lines. The experiment in a line: CellTiter-Glo cell viability, normal cell lines (summary). In kind it is cell-based. Conditions: Homo sapiens; 72 hours. As to the method:
as §1, §2

Series [5] relates to DLD-1 cells. Description: CellTiter-Glo luminescent cell viability assay. In kind it is cell-based. The settings on record: Homo sapiens; DLD-1, 72 hours, GraphPad. As to the method:
as §1, §2

Series [6] relates to DLD-1 p73kd cells. Description: CellTiter-Glo luminescent cell viability assay. In kind it is cell-based. Conditions: Homo sapiens, 72 hours, GraphPad. As to the method:
as §1, §2

The test system of series [7] is RXF393 renal cancer cells. Description: CellTiter-Glo luminescent cell viability assay. Format: cell-based. Conditions: Homo sapiens, RXF 393; RXF393, 72 hours, GraphPad. As to the method:
as §1, §2

Series [8] deals with MRC5 normal lung fibroblasts. The experiment in a line: CellTiter-Glo luminescent cell viability assay. The settings on record: Homo sapiens, MRCS (normal), 72 hours, GraphPad. In kind it is cell-based. As to the method:
as §1, §2

The target of series [9] is T1, R175H mutant p53 in HCT116 R175H p53 cells (Homo sapiens, UniProt P04637, R175H).
T1 construct: V5 (only from the vector name pLenti6/V5); host or cells: HCT116 p53-/- cells, lentivirus infection, blasticidin-selected pooled clones
The experiment in a line: cycloheximide chase assay. The settings on record: 100 μM, 24 hours, then cycloheximide. Format: cell-based. As to the method: As mutant p53 can acquire a gain-of-function activity, targeting mutant p53 for degradation has been explored as a therapeutic strategy. To investigate the capability of CB002 to impact on mutant p53 protein expression, Western blot analysis was used. […] To confirm these findings, a cycloheximide chase assay was performed. Cells were treated with vehicle control or CB002 for a period of 24 hours. Subsequently, 100 μg/mL cycloheximide was added to the wells and protein lysates were collected at different time points between 0-10 hours. […] Referring to FIG. 6, experiments with SW480 cells (Panels A and B) and analysis of DLD-1 colorectal cancer cells (Panel C) are shown. Cells were treated for a 24 hour period with DMSO, CB002 or positive control followed by 100 μg/mL of cycloheximide addition, and protein stability was evaluated in a time course ranging from 0-10 hours. Histone deacetylase inhibitor, SAHA and Hsp90 inhibitor Geldanamycin (1 μM GA) were used as positive controls.
Referring to FIG. 7, CB002 reduced the protein expression of the exogenous R175H mutant in HCT116 p53-null cells and not the HCT116 wild-type p53 cells (Panel A). HCT116 R175H p53 cells were treated for 24 hours with DMSO or CB002 followed by 100 μg/mL cycloheximide addition. Protein stability was evaluated from 0-10 hours (Panel B). […]

The test system of series [10] is autophagic vacuoles in DLD-1 cells. Description: CYTO-ID autophagy detection kit. In kind it is cell-based, human. The settings on record: 50 μM, 24 hours, versus DMSO.
Series [11] relates to cell cycle G2 checkpoint. The experiment in a line: propidium iodide staining cell cycle analysis. Format: cell-based. Conditions: 24 hour treatment, alone and with etoposide. On the procedure: Referring to FIG. 22 (panels A-F), propidium iodide staining cell cycle analysis for 24 hour treatment with DMSO (panel A), CB002 (panel B), CB002 and etoposide (panel C), etoposide (panel D), caffeine (panel E), and caffeine and etoposixe (panel F). […] The deregulation of the G2 checkpoint as a mechanism by caffeine prevents […] tumor cells that are treated with DNA damaging drugs, such as etoposide, from arresting to have time to repair, and thus sensitizes cancer cells to cell death.

For the compound `Cn1c(=O)c2c(nc(Nc3ccccc3)n2C)n(C)c1=O` [Analog 11, 8-anilino-1,3,7-trimethyl-3,7-dihydro-1Hpurine-2,6-dione], the Noxa expression result in [1] is recorded as “able to induce Noxa expression”. In addition, the cell viability entry in series [2] (72 hours) is reported as “reduced cell viability”. The p53 responsive bioluminescence result in series [3] (0 to 20 μmol/L) is given as “increased p53 responsive bioluminescence in a dose dependent manner”.

The term IC50 denotes the midpoint of a concentration-inhibition curve. A high value points to a need for much substance. As to `Cn1c(=O)c2[nH]c(Nc3ccccc3)nc2n(C)c1=O` [CB002, 8-anilino-1,3-dimethyl-3,7-dihydro-1H-purine-2,6-dione], the IC50 was about 650 µM in series [4]; 161 µM in [5]; 240 µM in [6]; 400 µM in [7]; 647 µM in series [8]; 96.5 µM in series [2] (Homo sapiens, SW480, 72 hours, GraphPad). Besides, the “stability of mutant p53” value in [9] is listed as “decreased the stability of mutant p53”. For the same compound, the “combination index (CI), CB002 and CPT-11” value in [2] (72 hours) is “synergism”. For the same compound, in [2] (72 hours), the cell viability entry was “reduced cell viability”. Also, the “combination index (CI), CB002 and 5-FU” value in [2] (72 hours, CI<1 indicates synergism) is under 1.0. For the same compound, the “cell viability, combination with 5-FU” value in series [2] (CB002 (22 μM and 66 μM) with 5-FU (60 μg/ml), 72 hours, versus single agents) was “significantly reduced cell viability”. The “cell viability, combination with CPT-11” value in [2] (CB002 (66 μM) and CPT-11 (a series of doses), 72 hours, versus single agents) is given as “significantly reduced cell viability”. Also, the autophagic vacuole-specific staining result in series [10] was “increase in autophagic vacuole-specific staining”. Further, in series [3] (0-100 μM, 2 and 24 hours), the “p53 luciferase reporter activity” value is recorded as “activating the luciferase reporter in a dose-dependent manner”. Also, the “effect on cell cycle G2 checkpoint” value in [11] is on record as “does not appear to deregulate the G2 cell cycle checkpoint”.
